Reference: PMC8174188 (Neuron, 2021)

What was measured:
[1] = target: dSARM1^ARM (Drosophila SARM1 ARM domain) (Drosophila melanogaster, UniProt Q6IDD9, R437A); assay: ITC; type: binding
[2] = target: T1, dSARM1^ARM (Drosophila SARM1 ARM domain) (Drosophila melanogaster, UniProt Q6IDD9); assay: ITC; type: binding
T1 sequence (Q6IDD9 307-678): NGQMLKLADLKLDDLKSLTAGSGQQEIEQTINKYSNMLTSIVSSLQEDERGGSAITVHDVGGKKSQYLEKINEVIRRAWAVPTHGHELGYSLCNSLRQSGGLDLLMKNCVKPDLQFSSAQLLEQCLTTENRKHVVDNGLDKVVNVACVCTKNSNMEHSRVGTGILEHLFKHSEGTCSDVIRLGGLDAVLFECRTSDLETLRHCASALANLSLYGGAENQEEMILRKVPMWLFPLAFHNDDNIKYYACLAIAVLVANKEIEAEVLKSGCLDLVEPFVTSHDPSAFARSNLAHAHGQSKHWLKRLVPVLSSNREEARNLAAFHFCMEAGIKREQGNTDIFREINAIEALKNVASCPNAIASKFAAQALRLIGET

cryo-EM structure = target: the molecule itself; assay: cryo-EM structure

dSARM1^ARM (Drosophila SARM1 ARM domain) (Drosophila melanogaster, UniProt Q6IDD9, R437A), sequence (Q6IDD9 307-678 R437A): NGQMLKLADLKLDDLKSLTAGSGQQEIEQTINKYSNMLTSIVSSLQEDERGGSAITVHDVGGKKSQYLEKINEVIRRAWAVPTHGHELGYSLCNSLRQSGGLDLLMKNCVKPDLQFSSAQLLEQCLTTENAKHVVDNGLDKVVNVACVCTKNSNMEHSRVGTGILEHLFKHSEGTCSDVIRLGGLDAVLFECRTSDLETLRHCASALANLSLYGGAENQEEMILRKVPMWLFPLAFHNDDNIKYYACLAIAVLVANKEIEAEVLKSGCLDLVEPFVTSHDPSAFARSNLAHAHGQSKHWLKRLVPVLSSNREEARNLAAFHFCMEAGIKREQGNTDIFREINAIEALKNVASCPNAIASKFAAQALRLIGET

NC(=O)c1ccc[n+]([C@@H]2O[C@H](COP(=O)([O-])O)[C@@H](O)[C@H]2O)c1 [NMN]
Kd [1]: 12.45 ± 0.03 µM

NC(=O)c1ccc[n+]([C@@H]2O[C@H](COP(=O)([O-])OP(=O)(O)OC[C@H]3O[C@@H](n4cnc5c(N)ncnc54)[C@H](O)[C@@H]3O)[C@@H](O)[C@H]2O)c1 [NAD^+]
Kd [2]: 54.2 ± 6.4 µM

B1: human SARM1 lacking the mitochondrial localisation signal (residues 28-724) (enzyme, UniProt Q6SZW1-1 28-724, looked up)
chain: LAVPGPDGGGGTGPWWAAGGRGPREVSPGAGTEVQDALERALPELQQALSALKQAGGARAVGAGLAEVFQLVEEAWLLPAVGREVAQGLCDAIRLDGGLDLLLRLLQAPELETRVQAARLLEQILVAENRDRVARIGLGVILNLAKEREPVELARSVAGILEHMFKHSEETCQRLVAAGGLDAVLYWCRRTDPALLRHCALALGNCALHGGQAVQRRMVEKRAAEWLFPLAFSKEDELLRLHACLAVAVLATNKEVEREVERSGTLALVEPLVASLDPGRFARCLVDASDTSQGRGPDDLQRLVPLLDSNRLEAQCIGAFYLCAEAAIKSLQGKTKVFSDIGAIQSLKRLVSYSTNGTKSALAKRALRLLGEEVPRPILPSVPSWKEAEVQTWLQQIGFSKYCESFREQQVDGDLLLRLTEEELQTDLGMKSGITRKRFFRELTELKTFANYSTCDRSNLADWLGSLDPRFRQYTYGLVSCGLDRSLLHRVSEQQLLEDCGIHLGVHRARILTAAREMLHSPLPCTGGKPSGDTPDVFISYRRNSGSQLASLLKVHLQLHGFSVFIDVEKLEAGKFEDKLIQSVMGARNFVLVLSPGALDKCMQDHDCKDWVHKEIVTALSCGKNIVPIIDGFEWPEPQVLPEDMQAVLTFNGIKWSHEYQEATIEKIIRFLQGRSSRDSSAGSDTSLEGAAPMGPT
stoichiometry N (cryo-EM structure): 8
